According to patent publication US10800791B2, “Triazole ACC inhibitors and uses thereof” (Gilead Apollo, LLC, priority 2015, dated 2020):
≈ marks a conversion by molar mass, not a printed value. Where two headings read alike, the source gives them in different places.

Key:
human (hACC2) = human (hACC2) (Homo sapiens, UniProt O00763); experiment: In vitro ACC inhibition assay (ADP-Glo), hACC2; assay type: biochemical; details: 5 nM ACC2, 20 μM ATP, 20 μM acetyl-CoA
Protocol: The detailed procedure is as follows. […] 10 μL ADP glo reagent was added. […] 20 μL kinase detection reagent was added.

C. krusei = experiment: Antifungal Activity Assay (broth microtiter MIC), C. krusei; assay type: cell-based, Candida krusei; details: Pichia kudriavzevii, ATCC6258, 48 h
Procedure, shortened: (§1)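 CLSI M27-A3 microdilution; RPMI 1640+MOPS; 2.5×10^3 CFU/mL final inoculum; cultures from Sabouraud dextrose agar, 35° C overnight; compound working solution 128 μg/mL from 1 mg/mL DMSO stock; visual MIC at 48 h vs growth control.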

C. parapsilosis = experiment: Antifungal Activity Assay (broth microtiter MIC), C. parapsilosis; assay type: cell-based, Candida parapsilosis; details: Lodderomyces parapsilosis, ATCC22019, 48 h
Procedure, shortened: as §1

Botrtyis cinerea (Bc) = experiment: Growth inhibition assay of fungal pathogens, Bc; assay type: cell-based; details: 48 h
Procedure, shortened: (§2)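 Spore suspension in 17% V8 liquid media; cpd final 50/10/2 or 2/0.4/0.08 ppm, 2% DMSO. OD600 + visual, 24 & 48 h; % inhibition at 48 h vs 2% DMSO ctrl.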

[1] = system: Fusarium moniliforme (Fm); experiment: Growth inhibition assay of fungal pathogens, Fm; assay type: cell-based; details: for IC90: Fusarium verticillioides, 48 h, read-out: Concentration at 90% Inhibition Fm
Procedure, shortened: as §2

[2] = system: Fusarium virguliforme (Fv); experiment: Growth inhibition assay of fungal pathogens, Fv; assay type: cell-based; details: 48 h
Procedure, shortened: as §2

[3] = system: Phytophthora capsici (Pc); experiment: Growth inhibition assay of fungal pathogens, Pc; assay type: cell-based; details: 48 h
Procedure, shortened: as §2

Rhizoctonia solani (Rs) = experiment: Growth inhibition assay of fungal pathogens, Rs; assay type: cell-based; details: 48 h
Septoria tritici (St) = experiment: Growth inhibition assay of fungal pathogens, St; assay type: cell-based; details: Zymoseptoria tritici, 48 h
Procedure, shortened: as §2

fungal (fACC2) = fungal (fACC2) (UniProt Q00955); details: read-out: fACC2 (in vitro ACC2 Inhibition Assay, IC50), ADP-Glo, 5 nM ACC2, 20 μM ATP, 20 μM acetyl-CoA
Chain of fungal (fACC2) (Q00955 whole entry): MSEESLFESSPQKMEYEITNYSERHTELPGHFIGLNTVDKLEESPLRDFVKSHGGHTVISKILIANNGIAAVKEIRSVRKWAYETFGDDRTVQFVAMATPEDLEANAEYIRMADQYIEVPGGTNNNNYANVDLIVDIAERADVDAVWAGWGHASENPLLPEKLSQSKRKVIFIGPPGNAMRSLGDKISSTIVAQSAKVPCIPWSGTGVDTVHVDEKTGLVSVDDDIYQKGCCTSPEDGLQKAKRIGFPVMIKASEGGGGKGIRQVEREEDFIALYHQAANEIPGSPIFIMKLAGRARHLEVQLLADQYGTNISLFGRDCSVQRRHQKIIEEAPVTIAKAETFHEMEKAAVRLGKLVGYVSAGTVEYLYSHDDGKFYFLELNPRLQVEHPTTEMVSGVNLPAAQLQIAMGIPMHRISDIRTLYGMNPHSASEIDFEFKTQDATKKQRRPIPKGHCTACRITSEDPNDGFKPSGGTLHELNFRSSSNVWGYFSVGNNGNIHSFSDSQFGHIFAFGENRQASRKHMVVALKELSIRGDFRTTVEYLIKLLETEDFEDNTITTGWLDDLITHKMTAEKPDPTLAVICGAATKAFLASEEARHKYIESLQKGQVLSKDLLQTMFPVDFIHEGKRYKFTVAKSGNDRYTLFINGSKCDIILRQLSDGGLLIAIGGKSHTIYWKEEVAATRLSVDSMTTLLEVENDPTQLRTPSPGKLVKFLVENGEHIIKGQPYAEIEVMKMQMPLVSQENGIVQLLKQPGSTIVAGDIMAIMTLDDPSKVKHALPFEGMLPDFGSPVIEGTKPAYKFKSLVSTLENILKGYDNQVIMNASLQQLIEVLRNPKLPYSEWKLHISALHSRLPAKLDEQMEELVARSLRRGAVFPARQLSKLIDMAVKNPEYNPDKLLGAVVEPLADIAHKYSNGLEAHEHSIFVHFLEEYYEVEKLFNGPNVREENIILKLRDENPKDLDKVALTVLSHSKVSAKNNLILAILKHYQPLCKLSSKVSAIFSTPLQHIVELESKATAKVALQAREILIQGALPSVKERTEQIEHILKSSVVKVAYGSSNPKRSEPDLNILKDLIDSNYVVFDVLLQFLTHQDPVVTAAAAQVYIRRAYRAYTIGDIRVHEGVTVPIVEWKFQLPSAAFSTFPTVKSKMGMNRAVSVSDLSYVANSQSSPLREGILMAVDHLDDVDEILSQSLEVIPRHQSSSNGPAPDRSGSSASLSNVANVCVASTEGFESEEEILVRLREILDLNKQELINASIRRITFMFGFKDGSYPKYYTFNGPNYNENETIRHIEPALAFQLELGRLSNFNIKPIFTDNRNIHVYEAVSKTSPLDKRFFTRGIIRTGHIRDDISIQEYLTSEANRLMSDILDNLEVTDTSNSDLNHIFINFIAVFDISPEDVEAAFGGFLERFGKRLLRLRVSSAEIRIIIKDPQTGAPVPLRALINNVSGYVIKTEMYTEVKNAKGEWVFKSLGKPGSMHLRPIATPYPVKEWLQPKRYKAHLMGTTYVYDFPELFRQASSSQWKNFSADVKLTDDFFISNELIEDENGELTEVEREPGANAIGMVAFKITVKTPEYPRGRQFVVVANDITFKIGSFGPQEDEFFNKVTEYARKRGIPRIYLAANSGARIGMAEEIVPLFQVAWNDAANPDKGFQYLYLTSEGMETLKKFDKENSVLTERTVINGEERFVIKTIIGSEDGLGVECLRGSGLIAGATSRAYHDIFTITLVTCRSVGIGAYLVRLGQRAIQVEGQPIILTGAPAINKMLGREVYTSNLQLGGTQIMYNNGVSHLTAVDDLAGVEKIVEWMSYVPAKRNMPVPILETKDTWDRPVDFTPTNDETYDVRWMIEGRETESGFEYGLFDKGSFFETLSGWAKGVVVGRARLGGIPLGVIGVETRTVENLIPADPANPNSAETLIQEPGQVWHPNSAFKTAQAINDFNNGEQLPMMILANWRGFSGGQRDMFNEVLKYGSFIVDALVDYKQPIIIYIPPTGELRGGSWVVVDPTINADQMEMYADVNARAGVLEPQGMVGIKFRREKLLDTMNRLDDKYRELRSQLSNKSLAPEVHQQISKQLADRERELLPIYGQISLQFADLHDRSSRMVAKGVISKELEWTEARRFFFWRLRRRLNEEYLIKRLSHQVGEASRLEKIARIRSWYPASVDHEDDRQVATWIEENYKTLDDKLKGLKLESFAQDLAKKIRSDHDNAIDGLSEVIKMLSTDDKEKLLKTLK

[4] = Fusarium moniliforme, growth inhibition at 48 hours vs 2% DMSO control

Chain of human (hACC2) (O00763 whole entry): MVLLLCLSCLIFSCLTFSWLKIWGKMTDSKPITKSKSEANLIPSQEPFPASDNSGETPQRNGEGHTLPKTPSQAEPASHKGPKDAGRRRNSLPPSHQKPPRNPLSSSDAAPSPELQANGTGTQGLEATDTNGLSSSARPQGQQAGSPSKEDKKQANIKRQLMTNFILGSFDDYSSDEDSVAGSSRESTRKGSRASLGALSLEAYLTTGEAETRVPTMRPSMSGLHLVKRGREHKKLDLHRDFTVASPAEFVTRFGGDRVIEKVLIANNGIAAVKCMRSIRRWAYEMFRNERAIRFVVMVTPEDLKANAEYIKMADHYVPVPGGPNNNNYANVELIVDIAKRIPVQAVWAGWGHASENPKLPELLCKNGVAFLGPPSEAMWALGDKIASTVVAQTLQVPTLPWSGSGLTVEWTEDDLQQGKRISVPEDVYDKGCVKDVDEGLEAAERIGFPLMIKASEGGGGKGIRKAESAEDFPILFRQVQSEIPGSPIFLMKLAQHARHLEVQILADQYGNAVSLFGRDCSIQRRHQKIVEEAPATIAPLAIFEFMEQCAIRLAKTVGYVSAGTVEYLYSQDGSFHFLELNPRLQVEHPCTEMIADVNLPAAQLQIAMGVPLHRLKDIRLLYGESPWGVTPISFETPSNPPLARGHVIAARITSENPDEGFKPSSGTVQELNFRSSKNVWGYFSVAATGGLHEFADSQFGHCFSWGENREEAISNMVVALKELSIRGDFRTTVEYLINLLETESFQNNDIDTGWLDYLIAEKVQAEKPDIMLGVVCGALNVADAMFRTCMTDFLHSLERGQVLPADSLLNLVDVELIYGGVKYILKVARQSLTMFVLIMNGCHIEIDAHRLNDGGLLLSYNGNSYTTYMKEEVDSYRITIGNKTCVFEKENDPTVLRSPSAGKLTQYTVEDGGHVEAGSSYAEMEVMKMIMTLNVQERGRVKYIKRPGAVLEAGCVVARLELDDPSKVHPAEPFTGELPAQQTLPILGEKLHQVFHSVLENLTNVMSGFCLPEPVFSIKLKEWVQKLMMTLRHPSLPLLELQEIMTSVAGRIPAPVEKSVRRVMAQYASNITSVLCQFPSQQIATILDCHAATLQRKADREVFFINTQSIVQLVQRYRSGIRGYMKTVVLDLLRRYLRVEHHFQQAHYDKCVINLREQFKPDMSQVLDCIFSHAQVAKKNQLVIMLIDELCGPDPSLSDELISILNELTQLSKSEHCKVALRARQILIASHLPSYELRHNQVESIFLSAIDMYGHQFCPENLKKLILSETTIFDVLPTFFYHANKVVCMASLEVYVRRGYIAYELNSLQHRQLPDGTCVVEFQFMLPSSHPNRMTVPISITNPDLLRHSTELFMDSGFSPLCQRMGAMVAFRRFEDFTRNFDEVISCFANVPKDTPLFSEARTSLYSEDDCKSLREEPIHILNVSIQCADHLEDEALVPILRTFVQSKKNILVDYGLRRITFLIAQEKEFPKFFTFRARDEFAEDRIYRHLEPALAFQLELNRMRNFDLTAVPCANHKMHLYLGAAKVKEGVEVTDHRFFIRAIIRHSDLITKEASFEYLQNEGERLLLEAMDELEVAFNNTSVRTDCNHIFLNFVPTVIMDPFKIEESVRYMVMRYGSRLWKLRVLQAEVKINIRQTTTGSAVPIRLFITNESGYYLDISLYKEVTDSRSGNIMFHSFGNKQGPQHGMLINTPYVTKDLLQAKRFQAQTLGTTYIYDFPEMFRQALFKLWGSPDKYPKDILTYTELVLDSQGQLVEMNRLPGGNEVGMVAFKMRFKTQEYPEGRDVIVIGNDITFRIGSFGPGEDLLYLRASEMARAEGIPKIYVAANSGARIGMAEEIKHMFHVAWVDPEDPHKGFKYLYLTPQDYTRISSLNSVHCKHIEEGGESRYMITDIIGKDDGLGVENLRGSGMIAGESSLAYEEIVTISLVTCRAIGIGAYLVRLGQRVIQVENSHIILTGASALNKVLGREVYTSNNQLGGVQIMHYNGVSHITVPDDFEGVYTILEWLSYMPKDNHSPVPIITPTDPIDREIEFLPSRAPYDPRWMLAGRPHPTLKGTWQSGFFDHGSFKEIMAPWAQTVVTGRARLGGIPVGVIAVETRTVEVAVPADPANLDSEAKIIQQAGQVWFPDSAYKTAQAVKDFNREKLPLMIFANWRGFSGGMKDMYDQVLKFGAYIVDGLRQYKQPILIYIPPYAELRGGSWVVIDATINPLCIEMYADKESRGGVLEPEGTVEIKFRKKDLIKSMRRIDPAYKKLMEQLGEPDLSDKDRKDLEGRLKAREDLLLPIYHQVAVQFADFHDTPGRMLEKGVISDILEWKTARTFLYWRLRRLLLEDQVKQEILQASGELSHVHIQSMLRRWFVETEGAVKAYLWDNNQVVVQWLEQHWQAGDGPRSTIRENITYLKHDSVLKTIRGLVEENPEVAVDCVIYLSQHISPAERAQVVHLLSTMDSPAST

COc1ccc(F)cc1[C@H](Cn1c(=O)n(CC(=O)NC(C)C)c(=O)c2c(C)c(-n3nccn3)sc21)OC(C)C [Compound I-35, (R)-2-(1-(2-(5-fluoro-2-methoxyphenyl)-2-isopropoxy-ethyl)-5-methyl-2,4-dioxo-6-(2H-1,2,3-triazol-2-yl)-1,4-dihydrothieno[2,3-d]pyrimidin-3(2H)-yl)-N-isopropylacetamide]
IC50 (human (hACC2); Table 2a): 1 to 5 nM | IC50 (human (hACC2); Table 2b, additional results): 1 to 5 nM | MIC (C. krusei; read-out: MIC, C. krusei ATCC 6258, Table 3a, 3 replicates, MIC recorded at 48 h): 2.1 to 4 µg/mL (≈ 3.76 to 7.16 µM) | MIC (C. krusei; read-out: MIC, C. krusei ATCC 6258, Table 3b (additional results), 3 replicates, MIC recorded at 48 h): > 4.01 µg/mL | MIC (C. parapsilosis; read-out: MIC, C. parapsilosis ATCC 22019, Table 3a, 3 replicates, MIC recorded at 48 h): 2.1 to 4 µg/mL (≈ 3.76 to 7.16 µM) | MIC (C. parapsilosis; read-out: MIC, C. parapsilosis ATCC 22019, Table 3b (additional results), 3 replicates, MIC recorded at 48 h): 2.01 to 4 µg/mL (≈ 3.6 to 7.16 µM) | IC90 (Botrtyis cinerea (Bc); read-out: Concentration at 90% Inhibition Bc, Botrtyis cinerea, growth inhibition at 48 hours vs 2% DMSO control): 0.4 µg/mL (≈ 0.716 µM) | IC90 (Botrtyis cinerea (Bc); read-out: Concentration at 90% Inhibition Bc, Botrtyis cinerea, growth inhibition vs 2% DMSO control at 48 hours): 0.4 µg/mL (≈ 0.716 µM) | Concentration at 90% Inhibition Fm [1, 4]: AA (compound concentration of 0.08 ppm at 90% inhibition of fungal pathogens) | IC90 [1]: 0.08 µg/mL (≈ 0.143 µM) | IC90 ([2]; read-out: Concentration at 90% Inhibition Fv, Fusarium virguliforme, growth inhibition at 48 hours vs 2% DMSO control): 0.4 µg/mL (≈ 0.716 µM) | IC90 ([2]; read-out: Concentration at 90% Inhibition Fv, Fusarium virguliforme, growth inhibition vs 2% DMSO control at 48 hours): 0.4 µg/mL (≈ 0.716 µM) | IC90 ([3]; read-out: Concentration at 90% Inhibition Pc, Phytophthora capsici, growth inhibition at 48 hours vs 2% DMSO control): > 50 µg/mL | IC90 ([3]; read-out: Concentration at 90% Inhibition Pc, Phytophthora capsici, growth inhibition vs 2% DMSO control at 48 hours): > 50 µg/mL | IC90 (Rhizoctonia solani (Rs); read-out: Concentration at 90% Inhibition Rs, Rhizoctonia solani, mycelial plugs, growth inhibition at 48 hours vs 2% DMSO control): 2 µg/mL (≈ 3.58 µM) | IC90 (Rhizoctonia solani (Rs); read-out: Concentration at 90% Inhibition Rs, Rhizoctonia solani, mycelial plugs, growth inhibition vs 2% DMSO control at 48 hours): 10 µg/mL (≈ 17.9 µM) | IC90 (Septoria tritici (St); read-out: Concentration at 90% Inhibition St, Septoria tritici, growth inhibition at 48 hours vs 2% DMSO control): > 50 µg/mL | IC90 (Septoria tritici (St); read-out: Concentration at 90% Inhibition St, Septoria tritici, growth inhibition vs 2% DMSO control at 48 hours): > 50 µg/mL | IC50 (fungal (fACC2); Table 2a): 1 to 5 nM | IC50 (fungal (fACC2); Table 2b, additional results): 1 to 5 nM

CCO[C@@H](Cn1c(=O)n(C(C)(C)C(=O)N2CCCC2)c(=O)c2c(C)c(-n3nccn3)sc21)c1cc(F)ccc1OC [Compound I-42, (R)-1-(2-ethoxy-2-(5-fluoro-2-methoxyphenyl)ethyl)-5-methyl-3-(2-methyl-1-oxo-1-(pyrrolidin-1-yl)propan-2-yl)-6-(2H-1,2,3-triazol-2-yl)thieno[2,3-d]pyrimidine-2,4(1H,3H)-dione]
IC50 (human (hACC2); Table 2a): 5 to 10 nM | IC50 (human (hACC2); Table 2b, additional results): 5 to 10 nM | MIC (C. krusei; Table 3a, ATCC 6258, 3 replicates, MIC recorded at 48 h, read-out: MIC, C. krusei ATCC 6258): 0.25 to 1 µg/mL (≈ 0.428 to 1.71 µM) | MIC (C. krusei; Table 3b (additional results), ATCC 6258, 3 replicates, MIC recorded at 48 h, read-out: MIC, C. krusei ATCC 6258): 1.01 to 2 µg/mL (≈ 1.73 to 3.42 µM) | MIC (C. parapsilosis; Table 3a, ATCC 22019, 3 replicates, MIC recorded at 48 h, read-out: MIC, C. parapsilosis ATCC 22019): 1.1 to 2 µg/mL (≈ 1.88 to 3.42 µM) | MIC (C. parapsilosis; Table 3b (additional results), ATCC 22019, 3 replicates, MIC recorded at 48 h, read-out: MIC, C. parapsilosis ATCC 22019): 1.01 to 2 µg/mL (≈ 1.73 to 3.42 µM) | IC90 (Botrtyis cinerea (Bc); Botrtyis cinerea, growth inhibition at 48 hours vs 2% DMSO control, read-out: Concentration at 90% Inhibition Bc): 0.4 µg/mL (≈ 0.684 µM) | IC90 (Botrtyis cinerea (Bc); Botrtyis cinerea, growth inhibition vs 2% DMSO control at 48 hours, read-out: Concentration at 90% Inhibition Bc): 0.4 µg/mL (≈ 0.684 µM) | IC90 [1, 4]: 0.08 µg/mL (≈ 0.137 µM) | IC90 ([1]; Fusarium moniliforme, growth inhibition vs 2% DMSO control at 48 hours): 0.08 µg/mL (≈ 0.137 µM) | IC90 ([2]; growth inhibition at 48 hours vs 2% DMSO control, read-out: Concentration at 90% Inhibition Fv): 0.08 µg/mL (≈ 0.137 µM) | IC90 ([2]; growth inhibition vs 2% DMSO control at 48 hours, read-out: Concentration at 90% Inhibition Fv): 0.08 µg/mL (≈ 0.137 µM) | IC90 ([3]; growth inhibition at 48 hours vs 2% DMSO control, read-out: Concentration at 90% Inhibition Pc): > 50 µg/mL | IC90 ([3]; growth inhibition vs 2% DMSO control at 48 hours, read-out: Concentration at 90% Inhibition Pc): > 50 µg/mL | IC90 (Rhizoctonia solani (Rs); mycelial plugs, growth inhibition at 48 hours vs 2% DMSO control, read-out: Concentration at 90% Inhibition Rs): 0.4 µg/mL (≈ 0.684 µM) | IC90 (Rhizoctonia solani (Rs); mycelial plugs, growth inhibition vs 2% DMSO control at 48 hours, read-out: Concentration at 90% Inhibition Rs): 0.4 µg/mL (≈ 0.684 µM) | IC90 (Septoria tritici (St); Septoria tritici, growth inhibition at 48 hours vs 2% DMSO control, read-out: Concentration at 90% Inhibition St): 2 µg/mL (≈ 3.42 µM) | IC90 (Septoria tritici (St); Septoria tritici, growth inhibition vs 2% DMSO control at 48 hours, read-out: Concentration at 90% Inhibition St): 10 µg/mL (≈ 17.1 µM) | IC50 (fungal (fACC2); Table 2a): 1 to 5 nM | IC50 (fungal (fACC2); Table 2b, additional results): 1 to 5 nM
